Where “and” joins values, the source holds several entries; their conditions need not be identical. Equal entries are not always repeated.
Assays:
5-HT2C = 5-HT2C (Homo sapiens (Human), UniProt P28335); assay: 5-HT2C binding assay ([3H]-Mesulergine, HEK293 membranes)
Description: 5-HT2C Binding Assay Protocol
The testing compounds were diluted with DMSO, starting at 2 mM, with 8-points and 5-fold serial dilutions.
1 μL of a compound of the present disclosure the reference compound (Table J) was transferred to an assay plate. […] 1 μL of DMSO was transferred to an assay plate according to the plate map for total binding (High control: HC).
(§1) Unifilter-96 GF/C filter plates were soaked with 50 μL of 0.3% PEI per well for about 0.5 hours at room temperature. When the binding assays were complete, the reaction mixture was filtered through the GF/C filter plates using Perkin Elmer Filtermate Harvester, and each plate was washed 4 times with cold wash buffer. The filter plates were dried for 1 hour at 50° C. After drying, the bottom of the filter plate wells were sealed using Perkin Elmer Unifilter-96 backing seal tape. 50 μL of Perkin Elmer Microscint 20 cocktail was added. The top of the filter plates were sealed with Perkin Elmer TopSeal-A sealing film.
(§2) ^3H trapped on filters were counted using Perkin Elmer MicroBeta2 Reader. Inhibition constants were calculated using the following equation:
[formula] The data was analyzed using Prism 5. The model used was “log(inhibitor) vs. response—Variable slope” to fit the data and calculate IC50. The IC50 was then converted to Ki using the following equation: Ki=IC50/(1+L/Kd), wherein L is the radioligand concentration in the reaction system; Kd is the affinity of radioligand to the receptor.

D2 = D2 (Homo sapiens (Human), UniProt P14416); assay: D2 binding assay ([3H] 7-OH-DPAT, HEK293 D2L membranes); details: numeric values
Description: D2 Binding Assay Protocol
The testing compounds were diluted with DMSO, starting at 2 mM, with 8-points and 5-fold serial dilutions. droperidol was diluted with DMSO, starting at 0.2 mM, with 8-points and 4-fold serial dilutions.
1 μL of a compound of the present disclosure and the reference compound (Table O) was transferred to an assay plate. 1 μL of droperidol was transferred to an assay plate according to the plate map for nonspecific binding (Low control: LC). 1 μL of DMSO was transferred to an assay plate according to the plate map for total binding (High control: HC). Following a plate map, 100 μL of the membrane stock solutions and radio ligand were added into the plate. The plates were sealed and shaken with 300 rpm.
as §1, with “the GF/B” for “the GF/C”
^3H trapped on filters were counted using Perkin Elmer MicroBeta2 Reader. Inhibition constants were calculated using the following equation: […]
The data was analyzed using Prism 5. The model used was “log(inhibitor) vs. response—Variable slope” to fit the data and calculate IC50. The IC50 was then converted to Ki using the following equation: Ki=IC50/(1+L/Kd), wherein L is the radioligand concentration in the reaction system; Kd is the affinity of radioligand to the receptor. As shown in Table Q Compound No. 7 has a lower affinity for D2 when compared to Compounds A-2, A-3, A-4, and A-5.

[1] = Human clearance and half-life projections (allometric scaling from monkey clearance); details: for T1/2 (h), projected human half-life: one-compartmental model, T1/2=0.693×(predicted Vd/predicted CL); for CL (mL/min/kg), projected human clearance: single species scaling from monkey clearance
Description: (§3) The biological activity of the compounds of the present disclosure may be determined utilizing projected human clearance (CL) and half-life in humans. An allometric scaling method, using a single species scaling from monkey clearance was used to project clearance. Human volume of distribution (Vd) was projected from animal Vd, adjusted for differences in plasma protein binding and assuming similar unbound Vd across species. Human half-life (T1/2) was calculated based on a one-compartmental model, using a relationship of T1/2=0.693×(predicted Vd/predicted CL).
as §3, with “An” for “The biological activity of the compounds of the present disclosure may be determined utilizing projected human clearance (CL) and half-life in humans. An”

5-HT2A = 5-HT2A (Homo sapiens (Human), UniProt P28223); assay: 5-HT2A binding assay ([3H]-Ketanserin, HEK293 stable cell line membranes)
Description: H1 and 5-HT2A Binding Assay Protocol
(§4) The testing compounds were diluted with DMSO, starting at 2 mM, with 8-points and 5-fold serial dilutions. Ketanserin and Pyrilamine were diluted with DMSO, starting at 0.2 mM, with 8-points and 5-fold serial dilution.
(§5) 1 μl of a compounds of the present disclosure and either reference compound (Table C) were transferred to assay plates. 1 μl of 0.2 mM Ketanserin or Pyrilamine was transferred to an assay plate according to the plate map for nonspecific binding (Low control: LC). 1 μl of DMSO was transferred to an assay plate according to plate map for total binding (High control: HC).
(§6) 100 μlof membrane stocks were dispensed into the plates, following the plate map. 100 of radio ligand was added. The plates were sealed and shaken at 300 rpm at room temperature for 1 hour. The Unifilter-96 GF/C filter plates were soaked with 50 of 0.3% PEI per well for at least 0.5 hour at room temperature.
as §1, with “When” for “Unifilter-96 GF/C filter plates were soaked with 50 μL of 0.3% PEI per well for about 0.5 hours at room temperature. When”, “through” for “through the”, “GF/C” for “GF/C filter”, “and then” for “and”, “50 degrees.” for “50° C.”, “μl” for “μL”
as §2
(§7) [formula] The data was analyzed using Prism 5. The model used was “log(inhibitor) vs. response—Variable slope” to fit the data and calculate IC50. The IC50 was then converted to Ki using following equation: Ki=IC50/(1+L/Kd). L is the radioligand concentration in the reaction system; Kd is the affinity of radioligand to the receptor.

male Wistar rats = assay: SCORE EEG/EMG sleep-wake monitoring: sleep continuity, number of arousals, depth of sleep; type: in vivo, rat; details: for normalized EEG delta power (slow wave activity) during nonREM sleep / increase in sleep bout-length per hour relative to vehicle control / cumulative increase in Total Sleep Time (NREM+REM sleep) relative to baseline: CT-18, male Wistar rats; for reductions in the number of transitions from sleep to wake per hour relative to controls: CT-5, male Wistar rats; for cumulative increase in Total Sleep Time (NREM+REM sleep) relative to baseline: 30 hours post-treatment
Description: Example 30. Experimental Details and Methods for Determining Sleep Continuity, Number of Arousals, and Depth of Sleep
Treatment detail plots (see, e.g., FIGS. 1-10) depict pre- and post-treatment time series plot ±30 hours before and after treatment at CT-18 (6-hours after lights-off) or pre- and post-treatment time series plots 29 hr before and 31 hr after treatments at CT-5 (5-hours after lights-on). Treatment occurred at the beginning of the hour marked by a triangle on the abscissa of the plot. Variables were computed in hourly bins.
All data were plotted as group mean±SEM (see, e.g., FIGS. 1-10). The gray shaded area encompasses the vehicle treatment mean±SEM. Along the x-axis, time of treatment is marked by a triangle unless noted otherwise. Along the x-axis, light/dark bars indicate lights on/off.
Adult, male Wistar rats (approximately 270 g at time of surgery, Charles River Laboratories) were administered dexmedetomidine 25 μg/kg and anesthetized (2% isoflourane in 95/5 oxygen, to effect) and surgically prepared with a cranial implant that permitted chronic electro-encephalogram (EEG) and electromyogram (EMG) recording. Body temperature and locomotor activity were monitored via a miniature transmitter (Minimitter Series PDT4000 E-Mitter, Bend, Oreg.) surgically placed in the abdomen during the same anesthetic event when the cranial portion was implanted. The cranial implant consisted of miniature stainless steel screws (2 frontal [+3.9 AP from bregma, 2.0 ML], 2 occipital [−6.4 AP, 5.5 ML], and 1 ground placed sagittaly and posterior to lambda) for EEG recording. Two Teflon-coated multi-strand stainless steel wires were positioned under the nuchal trapezoid muscles for EMG recording. All leads were soldered to a miniature connector (Omnetics, Minneapolis, Minn.) and gas sterilized with ethylene oxide prior to surgery. The implant assembly was affixed to the skull by the combination of the EEG recording screws, cyanoacrylate applied between the hermetically sealed implant connector and skull, and a UV-curing dental acrylic. An analgesic (meloxicam 1 mg/kg IP) was administered 1 day prior to surgery and daily for 2 days post-surgery. Neosporin with lidocaine was applied topically to the peri-implant margin. At least three weeks were allowed for surgical recovery prior to any data collection.
Rats were housed individually within specially modified Innovive® cages equipped with a custom-built ultra-low-torque slip-ring commutator and a customized Innovive® polycarbonate cage-top. These cages were located on shelves of a modified stainless steel animal rack that was pre-wired for physiological and behavioral data collection. Food and water were available ad libitum and the ambient temperature was 22±1° C. A 24-hr light-dark cycle (LD 12:12) was maintained throughout the study using LED lighting strips. Light intensity averaged 35 lux at mid-level inside the cage. Relative humidity averaged 50% approximately. Animals were undisturbed for two days before and after each treatment.
Sleep and wakefulness were determined using SCORE™—a Linux and Windows-10 real-time computer-based sleep-wake and physiological monitoring system. Validation of the SCORE™ sleep stage identification algorithm in rodents and the system's utility in pre-clinical drug discovery and evaluation have been previously described (Edgar et al. Psychopharmacology 1991, 105, 374; Gilmour et al., Neuropharmacology 2012, 64, 224; McCarthy et al., 2016, Neuropharmacology 108, 415; Olive et al., J. Pharmacology &Experimental Therapeutics 1998 285, 1073; Phillips et al, Neuropharmacology 2012, 62, 1359; Seidel et al. J Pharmacology &Experimental Therapeutics 1995, 275, 263; Van Gelder et al. Sleep 1991, 14, 48). […]

H1 = H1 (Homo sapiens (Human), UniProt P35367); assay: H1 binding assay ([3H]pyrilamine, HEK293 stable cell line membranes)
Description: Example 25. H1 and 5-HT2A Binding Assay Protocol
as §4, §5, §6
as §1, with “When” for “Unifilter-96 GF/C filter plates were soaked with 50 μL of 0.3% PEI per well for about 0.5 hours at room temperature. When”, “through” for “through the”, “GF/C” for “GF/C filter”, “and then” for “and”, “50 degrees.” for “50° C.”, “μl” for “μL”
as §2, §7

Chain of D2 (P14416 whole entry): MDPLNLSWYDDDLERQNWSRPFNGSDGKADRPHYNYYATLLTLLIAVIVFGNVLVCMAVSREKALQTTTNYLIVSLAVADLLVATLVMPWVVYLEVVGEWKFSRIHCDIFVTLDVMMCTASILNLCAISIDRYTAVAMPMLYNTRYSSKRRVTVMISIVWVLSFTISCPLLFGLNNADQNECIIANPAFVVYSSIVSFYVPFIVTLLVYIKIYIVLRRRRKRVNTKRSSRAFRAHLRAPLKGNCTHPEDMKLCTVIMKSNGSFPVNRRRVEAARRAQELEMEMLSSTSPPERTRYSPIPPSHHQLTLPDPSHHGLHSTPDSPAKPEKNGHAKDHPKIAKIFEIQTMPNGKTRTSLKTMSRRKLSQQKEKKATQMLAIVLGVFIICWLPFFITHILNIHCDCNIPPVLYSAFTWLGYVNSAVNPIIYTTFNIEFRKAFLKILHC
Chain of 5-HT2C (P28335 33-458): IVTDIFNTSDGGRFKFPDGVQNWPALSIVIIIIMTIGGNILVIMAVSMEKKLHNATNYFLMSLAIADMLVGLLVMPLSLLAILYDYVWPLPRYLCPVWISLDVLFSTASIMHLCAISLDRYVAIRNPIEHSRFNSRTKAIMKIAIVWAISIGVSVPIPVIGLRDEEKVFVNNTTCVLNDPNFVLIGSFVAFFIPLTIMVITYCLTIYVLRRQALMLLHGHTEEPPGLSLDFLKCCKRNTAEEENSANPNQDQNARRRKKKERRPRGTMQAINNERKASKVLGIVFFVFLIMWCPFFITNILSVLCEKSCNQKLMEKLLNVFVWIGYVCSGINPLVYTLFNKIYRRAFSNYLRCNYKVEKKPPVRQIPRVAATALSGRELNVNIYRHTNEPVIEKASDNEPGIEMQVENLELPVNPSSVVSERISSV
Chain of 5-HT2A (P28223 whole entry, species assumed): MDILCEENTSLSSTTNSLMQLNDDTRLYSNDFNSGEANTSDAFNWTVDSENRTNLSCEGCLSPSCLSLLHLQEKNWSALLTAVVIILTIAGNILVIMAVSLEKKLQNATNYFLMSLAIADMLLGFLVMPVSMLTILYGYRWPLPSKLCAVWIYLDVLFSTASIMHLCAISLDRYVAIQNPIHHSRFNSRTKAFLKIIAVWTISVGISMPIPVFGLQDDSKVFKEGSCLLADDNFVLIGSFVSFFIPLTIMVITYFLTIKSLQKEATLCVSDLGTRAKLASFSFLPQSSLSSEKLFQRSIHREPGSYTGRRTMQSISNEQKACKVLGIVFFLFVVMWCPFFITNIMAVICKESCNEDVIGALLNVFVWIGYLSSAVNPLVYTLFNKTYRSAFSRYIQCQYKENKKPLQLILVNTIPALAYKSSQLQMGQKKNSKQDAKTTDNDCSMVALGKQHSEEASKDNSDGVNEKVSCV
Chain of H1 (P35367 whole entry): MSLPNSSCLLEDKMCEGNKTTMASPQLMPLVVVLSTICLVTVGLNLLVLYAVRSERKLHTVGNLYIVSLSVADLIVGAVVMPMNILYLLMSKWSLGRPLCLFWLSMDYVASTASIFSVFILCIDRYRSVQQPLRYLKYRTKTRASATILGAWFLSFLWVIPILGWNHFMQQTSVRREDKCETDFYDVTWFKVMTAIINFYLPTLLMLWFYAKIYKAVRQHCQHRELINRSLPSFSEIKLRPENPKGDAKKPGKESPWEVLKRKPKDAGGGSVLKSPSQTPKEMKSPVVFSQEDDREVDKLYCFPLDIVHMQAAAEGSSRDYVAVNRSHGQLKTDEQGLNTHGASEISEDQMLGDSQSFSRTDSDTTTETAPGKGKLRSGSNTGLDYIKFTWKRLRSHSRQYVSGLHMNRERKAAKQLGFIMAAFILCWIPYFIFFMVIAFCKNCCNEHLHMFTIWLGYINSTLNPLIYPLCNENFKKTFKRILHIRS

Compound	Ki (5-HT2C; numeric values)	Ki (D2)	T1/2 (h), projected human half-life [1]	CL (mL/min/kg), projected human clearance [1]	Ki (5-HT2A; Table F, class symbols)	Ki (H1; Table E, class symbols)	Ki (5-HT2C; Table L, class symbols)	also measured
CC(C)(CN1CCN(C2=Nc3ccccc3Oc3ccccc32)CC1)C(=O)O [A-5, 3-(4-(dibenzo[b,f][1,4]oxazepin-11-yl)piperazin-1-yl)-2,2-dimethylpropanoic acid, reference compound]	680 nM	2870 nM	–	–	–	–	–	–
Cc1ccc2c(c1)N=C(N1CCN(CC(C)(C)C(=O)O)CC1)c1ccc(C)cc1O2 [A-4, 3-(4-(3,8-dimethyldibenzo[b,f][1,4]oxazepin-11-yl)piperazin-1-yl)-2,2-dimethylpropanoic acid, reference compound]	772 nM	1900 nM	–	–	–	–	–	–
Cc1ccc2c(c1)Oc1ccc(C)cc1C(N1CCN(CC(C)(C)C(=O)O)CC1)=N2 [A-3, 3-(4-(2,7-dimethyldibenzo[b,f][1,4]oxazepin-11-yl)piperazin-1-yl)-2,2-dimethylpropanoic acid, reference compound]	125 nM	152 nM	–	–	–	–	–	–
CC(C)(CN1CCN(C2=Nc3ccccc3Oc3cc(C(F)F)ccc32)CC1)C(=O)O [Compound No. 36, 3-(4-(3-(difluoromethyl)dibenzo[b,f][1,4]oxazepin-11-yl)piperazin-1-yl)-2,2-dimethylpropanoic acid]	–	–	14 to 50 h	0.4 mL/min/kg	–	–	–	–
CC(C)(CN1CCN(C2=Nc3ccccc3Cc3ccccc32)CC1)C(=O)O [Compound No. 8, 3-(4-(11H-dibenzo[b,e]azepin-6-yl)piperazin-1-yl)-2,2-dimethylpropanoic acid]	–	–	2 to 4 h	1.8 mL/min/kg	> 50 nM	25 to 50 nM	> 500 nM	Ki (5-HT2A; numeric values): ~87 nM and 87 nM; normalized EEG delta power (slow wave activity) during nonREM sleep (male Wistar rats; 3 mg/kg PO): increases in EEG slow wave activity in nonREM sleep; reductions in the number of transitions from sleep to wake per hour relative to controls (male Wistar rats; 10 mg/kg PO): up to 50%; increase in sleep bout-length per hour relative to vehicle control (male Wistar rats; 10 mg/kg PO): approximately 4 fold; cumulative increase in Total Sleep Time (NREM+REM sleep) relative to baseline (male Wistar rats; 30 mg/kg PO, listed as Compound 8): 70 min; cumulative increase in Total Sleep Time (NREM+REM sleep) relative to baseline (male Wistar rats; 30 mg/kg PO, listed as compound 8): approximately 70 minute; Ki (H1; numeric values): 46 nM
Cc1ccc2c(c1)Oc1cc(C(F)F)ccc1C(N1CCN(CC(C)(C)C(=O)O)CC1)=N2 [Compound No. 15, 3-(4-(3-(difluoromethyl)-7-methyldibenzo[b,f][1,4]oxazepin-11-yl)piperazin-1-yl)-2,2-dimethylpropanoic acid]	–	–	–	–	1 to 25 nM	> 50 nM	–	reductions in the number of transitions from sleep to wake per hour relative to controls (male Wistar rats; 30 mg/kg PO): approximately 30%; increase in sleep bout-length per hour relative to vehicle control (male Wistar rats; 30 mg/kg PO): approximately 3 fold; normalized EEG delta power (slow wave activity) during nonREM sleep (male Wistar rats; 30 mg/kg PO): increases in EEG slow wave activity in nonREM sleep
CC(C)(CN1CCN(C2=Nc3ccccc3Cc3cc(F)ccc32)CC1)C(=O)O [Compound No. 37, 3-(4-(9-fluoro-11H-dibenzo[b,e]azepin-6-yl)piperazin-1-yl)-2,2-dimethylpropanoic acid]	–	–	–	–	> 50 nM	> 50 nM	> 500 nM	–
Cc1ccc2c(c1)Oc1cc(F)ccc1N=C2N1CCN(CC(C)(C)C(=O)O)CC1 [Compound No. 6, 3-(4-(7-fluoro-3-methyldibenzo[b,f][1,4]oxazepin-11-yl)piperazin-1-yl)-2,2-dimethylpropanoic acid]	–	–	12 to 25 h	0.3 mL/min/kg	1 to 25 nM	1 to 25 nM	> 500 nM	–

From US11046651B2, “Piperazine substituted azapine derivatives and uses thereof” (Alairion, Inc., priority 2019, dated 2021)
